Test results reported in publication PMC8005474 (Journal of neuro-oncology, 2021).

Molecular target: YAP1 (Yes-associated protein, YAP) (Homo sapiens, UniProt P46937)
Experiment: SPR with immobilized full-length YAP
Format: binding

YAP1 (Yes-associated protein, YAP), sequence (P46937 whole entry): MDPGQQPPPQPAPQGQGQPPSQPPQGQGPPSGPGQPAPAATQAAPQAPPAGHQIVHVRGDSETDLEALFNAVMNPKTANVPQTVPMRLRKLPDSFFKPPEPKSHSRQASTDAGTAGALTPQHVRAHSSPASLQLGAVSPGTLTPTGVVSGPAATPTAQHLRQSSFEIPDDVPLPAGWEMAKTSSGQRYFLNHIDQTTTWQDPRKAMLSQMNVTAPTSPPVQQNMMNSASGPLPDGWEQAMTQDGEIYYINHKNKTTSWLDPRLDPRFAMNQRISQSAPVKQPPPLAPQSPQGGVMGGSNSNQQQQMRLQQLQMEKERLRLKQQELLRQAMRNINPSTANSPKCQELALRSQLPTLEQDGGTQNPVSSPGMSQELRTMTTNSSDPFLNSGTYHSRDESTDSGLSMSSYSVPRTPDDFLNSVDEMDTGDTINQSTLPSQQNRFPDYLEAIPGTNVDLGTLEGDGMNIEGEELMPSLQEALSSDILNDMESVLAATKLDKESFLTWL

COc1ccc(-c2cc(-c3ccccc3)nc3c2CC(=O)Nc2ccccc2-3)cc1OC [NSC682769]
Kd: 0.738 µM
